Reference: ChEMBL document CHEMBL1131397, “Synthesis and immunosuppressive activity of ruthenium complexes” (Bioorg Med Chem Lett, 1998)

Species on record: Homo sapiens
Experiment: Immunosuppressive activity was evaluated by the inhibition of human T-lymphocyte proliferation
Type: functional

Molecule | IC50 [nM] | IC50 (Homo sapiens) [nM]
[Ru(imidazolidine)6](CF3SO3)2 | 4 | –
CO[C@H]1C[C@@H]2CC[C@@H](C)[C@@](O)(O2)C(=O)C(=O)N2CCCC[C@H]2C(=O)O[C@H]([C@H](C)C[C@@H]2CC[C@@H](O)[C@H](OC)C2)CC(=O)[C@H](C)/C=C(\C)[C@@H](O)[C@@H](OC)C(=O)[C@H](C)C[C@H](C)/C=C/C=C/C=C/1C [SIROLIMUS] | – | 0.5
[Ru(imidazolidine)6]Cl2 | 5 | –
